Source: paper PMC7440915, “Discovery of surrogate agonists for visceral fat Treg cells that modulate metabolic indices in vivo” (eLife, 2020)
Where no end group is shown, it is not given here.

Tested on: vTreg53 Treg cells
Assay: Proliferation and activation of primary vTreg53 TCR-tg Treg cells in vitro
Format: cell-based, mouse
Conditions: 3 days; for proliferation: compared with no peptide / other SPs; for potency on primary vTreg53 Treg cells: in vitro
Description: Figure 4. SPs induce proliferation and activation of vTreg53 Treg cells in vitro and in vivo. (A–D) Proliferation and activation of vTreg53 Treg cells by different concentrations of SPs for 3 days in vitro (n = 3). (A) Representative flow cytometric plot of cell division. (B) Summary of cell proliferation. (C) Mean flourescence intensity (MFI) of CD44 staining in clonotype^+ Treg cells. (D) MFI of CD62L staining in clonotype^+ Treg cells. (E) Proliferation of transferred CD45.2^+ vTreg53 Treg cells in the spleen of CD45.1^+ B6 recipient mice immunized s.c. with CFA or CFA/Fat1562 at day 3 (n = 3). (F) Expansion of transferred CD45.2^+ vTreg53 Treg cells in the Spl/LNs or VAT of CD45.1^+ B6 recipient mice that were primed with CFA/fat1562 s.c. and boosted with IFA/Fat1562 i.p. (n ≥ 3). Data are mean ± SD. Data shown are representative of at least two independent experiments. Figure 4—figure supplement 1. Single cell TCR sequencing (scTCR-seq) analyses of fat1562-reactive endogenous Treg cells following immunization. (A) Scheme of the experiment. (B) Flow cytometric analysis of fat1562/A^b -PE tetramer+ Treg cells in Spl/LNs (enriched by anti-PE beads) or VAT (not enriched) of mice immunized with adjuvant alone or adjuvant/fat1562. Plot is a representative of mice that did show detectable expansion of tetramer+ Tregs. (C) Numbers of fat1562/A^b -PE tetramer+ Treg cells in Spl/LNs or VAT of mice immunized with adjuvant alone or adjuvant/fat1562 (D) Summary of the frequency and CDR3 sequences of expanded fat1562/A^b -PE tetramer+ Treg clones. [drawing 5] TEXT PRINTED IN THE PICTURE: (A) Fat7: 51 (1μM); 32.1 (0.1μM); 16.4 (0.01μM) | (A) Fat15: 59.7 (1μM); 54.4 (0.1μM); 37.1 (0.01μM) | (A) Fat1562: 61.6 (1μM); 57.6 (0.1μM); 51.8 (0.01μM) | (A) Fat2564: 44.2 (1μM); 32.5 (0.1μM); 19.3 (0.01μM) | (E) CFA: 9.6 | (E) CFA/Fat1562: 76.8 | (F) adjuvant: 0.1 (Spl/LN); 1.5 (VAT) | (F) adjuvant/Fat1562: 0.7 (Spl/LN); 38.1 (VAT) DOUBTS OF THE COPYIST ABOUT THIS PICTURE: Panels A, E, F: the gate numbers in the flow cytometry plots are printed without a measure or unit; they are copied as bare numbers. / Panel A: the row 'no peptide' (15.7, 17.1, 17.2) is a control without a substance and was left out. / Panel A, Fat1562, 1μM: the number is crossed by the histogram line; 61.6 is the best reading. / Panel E, CFA/Fat1562: the number is crossed by the histogram line; 76.8 is the best reading.
Tregs from pooled LNs of Tg^+ Foxp3-GFP^KI/y mice were labeled with CellTrace Violet dye (ThermoFisher Scientific), cultured in complete RPMI medium in the presence of 100 U/ml recombinant mouse IL-2 (peprotech), and stimulated by syngeneic APCs loaded with the indicated concentrations of different peptides. 3 days later, the proliferation and activation of clonotype^+ Treg cells was determined by flow cytometric analysis of the dilution of the CellTrace Violet dye, upregulation of CD44 expression, and downregulation of CD62L levels.

Sequence | CD62L down-regulation (0.01 µM) | proliferation (0.01 µM) | CD62L down-regulation (1 µM, n = 3) | potency on primary vTreg53 Treg cells | CD44 up-regulation (0.01 µM, compared with no peptide)
TMYKNPRPMAATG [Fat1562] | strongest proliferation and down-regulation of CD62L | strongest proliferation | strongest down-regulation of CD62L | consistently the strongest SP | 
TMYKNLRPWAATG [Fat2564] |  |  |  | relatively weak potency, which was comparable with that of Fat7 | 
LMFKGPHAVQAVG [Fat7] |  | unable to promote any further proliferation | dampened CD62L levels only moderately |  | unable to promote any further proliferation and up-regulation of CD44 expression
